Experimental data published in patent US20130065818A1, “Arylamide Compounds And Compositions And Uses Thereof” (POLYMEDIX, priority 2006, published 2013).
Where “and” joins values, the source holds several entries; their conditions need not be identical. Equal entries are not always repeated. Entries after “also recorded” stand apart in the source; their conditions may differ.

How the values were obtained:
[1] = tested on: fluoroquinolone-resistant, methicillin-resistant Staphylococcus aureus (K950); assay: NZW rabbit keratitis model, corneal colony counts; type: in vivo; settings: for Log10 CFU/ml, Median / Log10 CFU/ml Maximum / Log10 CFU/ml Minimum / Log10 CFU/ml, Mean: 6 corneas; for Mean Rank, Kruskal-Wallis ANOVA with Duncan Multiple Comparisons Test - Log10 CFU/ml / Statistical comparison of colony counts between groups (< = significantly fewer colony counts): P = 0.05; for Log10 CFU/ml Maximum / Log10 CFU/ml Minimum / Log10 CFU/ml, Mean: Descriptive Statistics; for Reduction of colony counts compared with the Saline Control: corneal epithelium intact or removed; for Log10 CFU/ml: individual corneas (Row 1-6; K-3, K-4); for CFU/ml: individual corneas (Row 1-6; Ker-3, Ker-4)
Source text: (§1) One purpose of the following experiments was to compare the efficacy of 1% Oligomer 2, 0.5% Oligomer 2, and 5% vancomycin in the treatment of a fluoroquinolone-resistant, methicillin-resistant Staphylococcus aureus infection in the NZW rabbit keratitis model with or without intact corneal epithelia.
Nothing was done to the right eyes.
as §1, with “0.25%” for “1%”, “with and without 0.005% benzalkonium chloride,” for “0.5% Oligomer 2,”, “epithelia. The 0.005% benzalkonium chloride has been added to try to increase the penetration of 0.25% Oligomer 2 through the corneal epithelium.” for “epithelia.”
One purpose of the following experiments was to determine the efficacy of 0.25% Oligomer 4, with and without 200 μM Farnesol, and 200 μM Farnesol in the treatment of a fluoroquinolone-resistant and methicillin-resistant Staphylococcus aureus infection in the NZW rabbit keratitis model with or without intact corneal epithelia. The 200 μM Farnesol has been added to try to increase the efficacy and penetration of 0.25% Oligomer 4 through the corneal epithelium.

[2] = Draize ocular toxicity scoring, NZW rabbit ocular toxicity model; type: in vivo; set-up: key to MMTS / Score (Draize total): Draize total score of cornea, iris and conjunctivae; maximum 110; III. B. Chemosis / I. A. Cornea opacity / I. B. Area of cornea involved / II. A. Iris / III. A. Conjunctivae redness / III. C. Discharge: scale not given here
Description: The ocular toxicity of several concentrations of Oligomer 2, using the Draize ocular toxicity scoring system, in the NZW rabbit ocular toxicity model was carried out.
(§2) Rabbits were treated in both eyes with (37 μl) topical drops every 30 minutes for 3 hours (7 total doses). One rabbit was treated with Tris-Buffered Saline and served as a negative control. Rabbits were evaluated in a masked fashion for ocular toxicity by an ophthalmologist with specialty training in corneal and external disease. Ocular toxicity was evaluated using the Draize scoring system after treatment on Day 0 and on Day 3 post treatment for any delayed toxicity. (Draize et al., J. Pharmacol. Exp. Ther., 1944, 82, 377-390).
A brief summary of the Draize scoring system for ocular lesions is provided below
Total Maximum Score: 110 represents the sum of all scores obtained for the cornea, iris and conjunctivae.
The ocular toxicity of several formulations of Oligomer 4 with and without farnesol, using the Draize ocular toxicity scoring system, in the NZW rabbit ocular toxicity model was carried out.
as §2, with “external disease 30 minutes after the final dose.” for “external disease.”, “system (see above)” for “system”, “Day 2” for “Day 3”, “toxicity.” for “toxicity. (Draize et al., J. Pharmacol. Exp. Ther., 1944, 82, 377-390).”

[3] = 100 μM Farnesol in 1% PG and TBS, Day 0
[4] = 100 μM Farnesol in 1% PG and TBS, Day 0, per eye
[5] = 100 μM Farnesol in 1% PG and TBS, Day 2
[6] = 100 μM Farnesol in 1% PG and TBS, Day 2, per eye
[7] = 100 μM in 1% Propylene Glycol (PG) and TBS, Day 0
[8] = 100 μM in 1% Propylene Glycol (PG) and TBS, Day 2
[9] = 200 μM Farnesol in 1% PG and TBS, Day 0
[10] = 200 μM Farnesol in 1% PG and TBS, Day 0, per eye
[11] = 200 μM Farnesol in 1% PG and TBS, Day 2
[12] = 200 μM Farnesol in 1% PG and TBS, Day 2, per eye
[13] = 200 μM in 1% Propylene Glycol (PG) and TBS, Day 0
[14] = 200 μM in 1% Propylene Glycol (PG) and TBS, Day 2
[15] = 0.25% Oligomer 4 in TBS, Day 0, per eye
[16] = 0.25% Oligomer 4 in TBS, Day 2, per eye
[17] = 0.25% in Tris Buffered Saline (TBS), Day 0
[18] = 0.25% in Tris Buffered Saline (TBS), Day 2
[19] = 0.5% Oligomer 4 in TBS, Day 0, per eye
[20] = 0.5% Oligomer 4 in TBS, Day 2, per eye
[21] = 0.5% in Tris Buffered Saline (TBS), Day 0
[22] = 0.5% in Tris Buffered Saline (TBS), Day 2

## CC(C)=CCCC(C)=CCCC(C)=CCO [Farnesol]
[1]; Abraded Epithelium
  Log10 CFU/ml, Median: 6.849 Log10 CFU/ml and 6.8489 Log10 CFU/ml
  Mean Rank, Kruskal-Wallis ANOVA with Duncan Multiple Comparisons Test - Log10 CFU/ml: 23.5000
  Statistical comparison of colony counts between groups (< = significantly fewer colony counts): PMX = P + F < ONSET < FARN = CON
  Log10 CFU/ml Maximum: 6.916 Log10 CFU/ml
  Log10 CFU/ml Minimum: 6.109 Log10 CFU/ml
  Log10 CFU/ml, Mean: 6.626 Log10 CFU/ml
  Log10 CFU/ml: 6.875 Log10 CFU/ml and 6.109 Log10 CFU/ml and 6.146 Log10 CFU/ml and 6.889 Log10 CFU/ml and 6.823 Log10 CFU/ml and 6.916 Log10 CFU/ml
  CFU/ml: 7500000 CFU/ml and 1285000 CFU/ml and 1400000 CFU/ml and 7750000 CFU/ml and 6650000 CFU/ml and 8250000 CFU/ml
[1]; Intact Epithelium
  Log10 CFU/ml, Median: 7.3000 Log10 CFU/ml
  Log10 CFU/ml Maximum: 7.6551 Log10 CFU/ml
  Log10 CFU/ml Minimum: 7.1818 Log10 CFU/ml
  Log10 CFU/ml, Mean: 7.3624 Log10 CFU/ml
  Mean Rank, Kruskal-Wallis ANOVA with Duncan Multiple Comparisons Test - Log10 CFU/ml: 22.1667
  Statistical comparison of colony counts between groups (< = significantly fewer colony counts): ONSET = PMX = P + F < FARN = CON
  Log10 CFU/ml: 7.182 Log10 CFU/ml and 7.259 Log10 CFU/ml and 7.479 Log10 CFU/ml and 7.655 Log10 CFU/ml and 7.27 Log10 CFU/ml and 7.33 Log10 CFU/ml
  CFU/ml: 15200000 CFU/ml and 18150000 CFU/ml and 30100000 CFU/ml and 45200000 CFU/ml and 18600000 CFU/ml and 21400000 CFU/ml
[1]; Abraded vs. Intact Epithelium, Mann-Whitney Test
  Effect of Abraded Epithelium on Effectiveness of Each Test Solution (colony counts, < = significantly fewer): FARN-AE < FARN-IE; also recorded: Abraded < Intact
[1]; Example 11, Mann-Whitney test, < = significantly fewer colony counts
  Effect of Abraded Epithelium on Effectiveness of Each Test Solution (colony counts, abraded vs. intact): Abraded = Intact
[1]; IE Log vs AE Log of the same test solution
  Point estimate for ETA1-ETA2 (Mann-Whitney, Log10 CFU/ml), Intact minus Abraded Epithelium: Point estimate for ETA1-ETA2 is 0.5964
[1]; Ker-3 (Example 11), abraded epithelium, 21 doses
  Statistical comparison of corneal colony counts (< = significantly fewer colony counts): PMX═P+F═ONSET<FARN═CON
[1]; Ker-3 (Example 11), intact epithelium, 21 doses
  Statistical comparison of corneal colony counts (< = significantly fewer colony counts): ONSET=PMX═P+F<FARN═CON
[1]; Ker-3
  Reduction of colony counts compared with the Saline Control: NOT effective
[1]; Ker-4
  Colony counts, corneal epithelium removed compared with intact epithelium: significantly fewer colony counts in eyes with the corneal epithelium removed
  Reduction of colony counts compared with the Saline Control: not effective
[1]; Ker-4 (Example 12), abraded epithelium
  Statistical comparison of corneal colony counts (< = significantly fewer colony counts): PMX═P+F<ONSET<FARN═CON
[1]; Ker-4 (Example 12), intact epithelium
  Statistical comparison of corneal colony counts (< = significantly fewer colony counts): ONSET=PMX═P+F<FARN═CON
[2]; [3]
  Classification of eye irritation: Non-Irritating
  MMTS: 0.0
  MMTS classification symbol: N (0.0-0.5 Non-Irritating)
[2]; [4]
  I. A. Cornea opacity: 0
  I. B. Area of cornea involved: 0
  I. Tot (cornea, A × B × 5): 0
  II. A. Iris: 0
  II. Tot (iris, A × 5): 0
  III. A. Conjunctivae redness: 0
  III. B. Chemosis: 0
  III. C. Discharge: 0
  III. Tot (conjunctivae, (A + B + C) × 2): 0
  Score (Draize total): 0
[2]; [5]
  MMTS: 1.5
  MMTS classification symbol: PN (0.6-2.5 Practically Non-Irritating)
[2]; [6]
  I. A. Cornea opacity: 0
  I. B. Area of cornea involved: 0
  I. Tot (cornea, A × B × 5): 0
  II. A. Iris: 0
  II. Tot (iris, A × 5): 0
  III. A. Conjunctivae redness: 0
  III. B. Chemosis: 0
[2]; [7]
  MMTS: 0.0
  MMTS classification: N (0.0-0.5 Non-Irritating)
[2]; [8]
  MMTS: 1.5
  MMTS classification: PN (0.6-2.5 Practically Non-Irritating)
[2]; [9]
  Classification of eye irritation: Non-Irritating
  MMTS: 0.5
  MMTS classification symbol: N (0.0-0.5 Non-Irritating)
[2]; [10]
  I. A. Cornea opacity: 0
  I. B. Area of cornea involved: 0
  I. Tot (cornea, A × B × 5): 0
  II. A. Iris: 0
  II. Tot (iris, A × 5): 0
  III. A. Conjunctivae redness: 0
  III. B. Chemosis: 0
[2]; [11]
  Classification of eye irritation: Non-Irritating
  MMTS: 0.5
  MMTS classification symbol: N (0.0-0.5 Non-Irritating)
[2]; [12]
  I. A. Cornea opacity: 0
  I. B. Area of cornea involved: 0
  I. Tot (cornea, A × B × 5): 0
  II. A. Iris: 0
  II. Tot (iris, A × 5): 0
  III. A. Conjunctivae redness: 0
  III. B. Chemosis: 0
[2]; [13]
  MMTS: 0.5
  MMTS classification: N (0.0-0.5 Non-Irritating)
[2]; [14]
  MMTS: 0.5
  MMTS classification: N (0.0-0.5 Non-Irritating)

## N=C(N)NCCCCC(=O)Nc1cc(C(F)(F)F)cc(NC(=O)c2cc(C(=O)Nc3cc(C(F)(F)F)cc(NC(=O)CCCCNC(=N)N)c3O[C@@H]3CCNC3)ncn2)c1O[C@@H]1CCNC1 [Oligomer 4]
[1]; Ker-4
  Effect of addition of Farnesol on penetration and antibacterial efficacy of Oligomer 4: did nothing to promote penetration; also recorded: a trend toward antagonism
[1]; Ker-4, corneal epithelium removed
  Reduction of colony counts compared with the Onset of Therapy Control: effective
[1]; in vivo
  Effect of addition of Farnesol on penetration of 0.25% Oligomer 4 through the intact corneal epithelium: did not appear aid in the penetration
[2]; 0.25% Oligomer 4 in TBS, Day 0
  Classification of eye irritation: Practically Non-Irritating
  MMTS: 1.5
  MMTS classification symbol: PN (0.6-2.5 Practically Non-Irritating)
[2]; [15]
  I. A. Cornea opacity: 0
  I. B. Area of cornea involved: 0
  I. Tot (cornea, A × B × 5): 0
  II. A. Iris: 0
  II. Tot (iris, A × 5): 0
  III. A. Conjunctivae redness: 0
  III. B. Chemosis: 0
[2]; 0.25% Oligomer 4 in TBS, Day 2
  Classification of eye irritation: Non-Irritating
  MMTS: 0.5
  MMTS classification symbol: N (0.0-0.5 Non-Irritating)
[2]; [16]
  I. A. Cornea opacity: 0
  I. B. Area of cornea involved: 0
  I. Tot (cornea, A × B × 5): 0
  II. A. Iris: 0
  II. Tot (iris, A × 5): 0
  III. A. Conjunctivae redness: 0
  III. B. Chemosis: 0
[2]; [17]
  MMTS: 1.5
  MMTS classification: PN (0.6-2.5 Practically Non-Irritating)
[2]; [18]
  MMTS: 0.5
  MMTS classification: N (0.0-0.5 Non-Irritating)
[2]; 0.5% Oligomer 4 in TBS, Day 0
  Classification of eye irritation: Mildly Irritating
  MMTS: 6.5
  MMTS classification symbol: M1 (2.6-15.0 Minimally Irritating)
[2]; [19]
  I. A. Cornea opacity: 0
  I. B. Area of cornea involved: 0
  I. Tot (cornea, A × B × 5): 0
  II. A. Iris: 0
  II. Tot (iris, A × 5): 0
  III. C. Discharge: 2 and 1
[2]; 0.5% Oligomer 4 in TBS, Day 2
  MMTS: 1.0
  MMTS classification symbol: N (0.0-0.5 Non-Irritating)
[2]; [20]
  I. A. Cornea opacity: 0
  I. B. Area of cornea involved: 0
  I. Tot (cornea, A × B × 5): 0
  II. A. Iris: 0
  II. Tot (iris, A × 5): 0
  III. A. Conjunctivae redness: 0
  III. B. Chemosis: 0
[2]; [21]
  MMTS: 6.5
  MMTS classification: M1 (2.6-15.0 Minimally Irritating)
[2]; [22]
  MMTS: 1.0
  MMTS classification: N (0.0-0.5 Non-Irritating)
[2]; Example 7, 7 topical instillations, every 30 minutes for 3 hours
  Dose dependence of ocular toxicity: dose dependent ocular toxicity
[2]; rabbit, in vivo
  Effect of addition of 100 μM Farnesol in 1% Propylene Glycol on ocular toxicity: increased the toxicity
